Two compounds from paper PMC3271064, “Discrete Cyclic di-GMP-Dependent Control of Bacterial Predation versus Axenic Growth in Bdellovibrio bacteriovorus” (PLoS Pathogens, 2012) can be followed below.

The target in one assay is T1, CdgA (Bd3125) (Bdellovibrio bacteriovorus, UniProt Q6MIM9).
T1 construct: MBP fusion, expressed in and purified from E. coli; MBP kept; degenerate GVNEF motif is natural
T1 sequence (Q6MIM9 1-496): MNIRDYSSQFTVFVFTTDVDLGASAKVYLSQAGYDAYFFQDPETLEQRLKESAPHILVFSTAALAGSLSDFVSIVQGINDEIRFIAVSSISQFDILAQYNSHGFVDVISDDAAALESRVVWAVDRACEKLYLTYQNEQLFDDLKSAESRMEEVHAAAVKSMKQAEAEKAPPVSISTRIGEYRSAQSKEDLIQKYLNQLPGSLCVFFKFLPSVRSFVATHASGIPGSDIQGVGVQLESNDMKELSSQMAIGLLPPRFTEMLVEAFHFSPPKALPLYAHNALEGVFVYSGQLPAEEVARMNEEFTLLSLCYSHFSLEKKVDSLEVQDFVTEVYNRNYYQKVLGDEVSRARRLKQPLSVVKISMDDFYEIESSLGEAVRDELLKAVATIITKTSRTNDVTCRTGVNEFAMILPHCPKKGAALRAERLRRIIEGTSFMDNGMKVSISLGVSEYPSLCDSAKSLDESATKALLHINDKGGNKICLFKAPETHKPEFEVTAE
Put plainly: equilibrium dialysis. To be noted: read-out: apparent Kd. In kind it is binding.

The target of another assay is T2, DgcA (Bd0367) (Bdellovibrio bacteriovorus, UniProt Q6MQU2).
T2 construct: gene pleD; MBP fusion, expressed in and purified from E. coli; MBP kept
T2 sequence (Q6MQU2 1-343): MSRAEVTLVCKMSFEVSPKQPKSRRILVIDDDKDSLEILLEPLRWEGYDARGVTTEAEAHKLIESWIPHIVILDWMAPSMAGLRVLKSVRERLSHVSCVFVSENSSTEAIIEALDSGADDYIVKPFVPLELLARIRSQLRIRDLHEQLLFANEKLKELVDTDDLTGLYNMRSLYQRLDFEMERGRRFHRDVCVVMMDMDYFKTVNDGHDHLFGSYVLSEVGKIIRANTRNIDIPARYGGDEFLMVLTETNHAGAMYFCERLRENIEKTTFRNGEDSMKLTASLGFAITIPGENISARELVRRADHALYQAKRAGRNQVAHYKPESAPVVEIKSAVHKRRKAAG
The assay is described as follows: diguanylyl cyclase assay, HPLC. The class given is biochemical. To be noted: MBP-DgcA.

The target of another assay is T3, DgcC (Bd1434) (Bdellovibrio bacteriovorus, UniProt Q6MN29).
T3 construct: MBP fusion, expressed in and purified from E. coli; MBP kept; natural GGEEF motif
T3 sequence (Q6MN29 1-408): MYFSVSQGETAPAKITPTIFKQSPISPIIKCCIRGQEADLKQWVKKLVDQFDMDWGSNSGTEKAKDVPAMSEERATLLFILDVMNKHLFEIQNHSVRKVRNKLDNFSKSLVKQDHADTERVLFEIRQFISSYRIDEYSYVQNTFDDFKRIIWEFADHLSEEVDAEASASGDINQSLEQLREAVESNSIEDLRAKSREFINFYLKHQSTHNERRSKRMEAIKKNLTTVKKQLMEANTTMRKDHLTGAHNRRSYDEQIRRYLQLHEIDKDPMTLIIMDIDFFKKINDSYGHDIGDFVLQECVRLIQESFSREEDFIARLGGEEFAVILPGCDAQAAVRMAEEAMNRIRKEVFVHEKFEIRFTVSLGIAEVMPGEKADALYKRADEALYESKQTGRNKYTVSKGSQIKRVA
Put plainly: diguanylyl cyclase assay, HPLC. The following applies: MBP-DgcC. The class given is biochemical.

The next assay concerns the target T4, DgcB (Bd0742) (Bdellovibrio bacteriovorus, UniProt Q6MPU8).
T4 construct: MBP fusion, expressed in and purified from E. coli; MBP kept; copurifies with c-di-GMP
T4 sequence (Q6MPU8 1-320): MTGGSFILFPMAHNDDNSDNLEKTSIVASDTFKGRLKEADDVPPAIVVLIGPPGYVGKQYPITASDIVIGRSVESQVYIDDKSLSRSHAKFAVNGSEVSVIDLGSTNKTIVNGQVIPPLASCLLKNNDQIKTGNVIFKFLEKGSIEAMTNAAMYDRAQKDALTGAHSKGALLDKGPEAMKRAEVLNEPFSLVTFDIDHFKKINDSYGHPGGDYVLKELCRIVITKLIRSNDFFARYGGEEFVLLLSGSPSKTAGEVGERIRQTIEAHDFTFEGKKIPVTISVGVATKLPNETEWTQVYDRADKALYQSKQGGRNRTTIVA
Put plainly: diguanylyl cyclase assay, HPLC. The class given is biochemical. The following applies: MBP-DgcB; activity only after about 30 min incubation at 37°C.

Turning to `Nc1nc2c(ncn2[C@@H]2O[C@@H]3COP(=O)(O)O[C@H]4[C@@H](O)[C@H](n5cnc6c(=O)[nH]c(N)nc65)O[C@@H]4COP(=O)(O)O[C@H]3[C@H]2O)c(=O)[nH]1` [c-di-GMP], the Kd on CdgA (Bd3125) was around 2000 nM. Also, the “diguanylyl cyclase assay, HPLC” value at DgcA (Bd0367) (from GTP) was “HPLC profiles show peaks of c-di-GMP (product) and GTP (substrate)”; on DgcC (Bd1434) (from GTP), “HPLC profiles show peaks of c-di-GMP (product) and GTP (substrate)”.
Regarding `Nc1nc2c(ncn2[C@@H]2O[C@H](COP(=O)(O)OP(=O)(O)OP(=O)(O)O)[C@@H](O)[C@H]2O)c(=O)[nH]1` [GTP], the “diguanylyl cyclase assay, HPLC” value on DgcB (Bd0742) is “DgcA, DgcB and DgcC proved to function as diguanylyl cyclases (Figure 1A–C)”; on DgcA (Bd0367), “DgcA, DgcB and DgcC proved to function as diguanylyl cyclases (Figure 1A–C)”; at DgcC (Bd1434) it was “DgcA, DgcB and DgcC proved to function as diguanylyl cyclases (Figure 1A–C)”.
